In ChEMBL document CHEMBL1687869, “Cycloartane triterpenes isolated from Combretum quadrangulare in a screening program for death-receptor expression enhancing activity” (2011):
Active and inactive are the calls of the source. The calls are words filed in the database; no cut-off is given here.

Columns and labels:
[1] = molecular target: Tumor necrosis factor receptor superfamily member 10B (Homo sapiens) (UniProt O14763); assay: Increase in DR5 promoter activity in SacI gene expressing human DLD1 cells at 17.5 to 70 uM after 24 hrs by luciferase reporter gene assay relative to control; format: cell-based; settings: DLD-1
Tumor necrosis factor receptor superfamily member 10B (Homo sapiens), sequence (O14763 whole entry): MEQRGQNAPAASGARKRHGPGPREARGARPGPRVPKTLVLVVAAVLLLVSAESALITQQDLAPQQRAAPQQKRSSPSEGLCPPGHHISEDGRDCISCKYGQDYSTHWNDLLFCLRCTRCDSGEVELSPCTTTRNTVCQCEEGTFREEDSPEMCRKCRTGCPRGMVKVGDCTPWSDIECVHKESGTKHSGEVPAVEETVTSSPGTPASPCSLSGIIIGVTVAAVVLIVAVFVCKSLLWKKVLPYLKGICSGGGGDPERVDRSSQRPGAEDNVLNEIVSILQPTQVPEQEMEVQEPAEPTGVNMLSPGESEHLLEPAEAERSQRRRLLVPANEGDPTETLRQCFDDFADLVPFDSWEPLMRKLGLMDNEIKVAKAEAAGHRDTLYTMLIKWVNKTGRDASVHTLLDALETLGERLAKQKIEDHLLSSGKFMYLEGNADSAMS

[2] = system: AGS; assay: Cytotoxicity against TRAIL-resistant human AGS cells assessed as cell viability at 17.5 uM after 24 hrs by fluorometric microculture assay in presence of 100 ng/ml TRAIL; format: functional
[3] = system: AGS; assay: Cytotoxicity against TRAIL-resistant human AGS cells assessed as cell viability at 12.5 uM after 24 hrs by fluorometric microculture assay in presence of 100 ng/ml TRAIL; format: functional
[4] = system: AGS; assay: Cytotoxicity against TRAIL-resistant human AGS cells assessed as cell viability at 17.5 uM after 24 hrs by fluorometric microculture assay; format: functional; settings: read-out: Activity
[5] = molecular target: Tumor necrosis factor receptor superfamily member 10B (Homo sapiens) (UniProt O14763); assay: Increase in DR5 promoter activity in SacI gene expressing human DLD1 cells at 17.5 uM after 24 hrs by luciferase reporter gene assay relative to control; format: cell-based; settings: DLD-1

**Q.** How did the fold change (FC) [1] turn out when `COC(C)(C)/C=C/C[C@@H](C)[C@H]1CC[C@@]2(C)[C@@H]3[C@@H](O)C[C@H]4C(C)(C)C(=O)CC[C@@]45C[C@@]35CC[C@]12C` was run?
**A.** Its fold change (FC) is 2.5.

**Q.** `COc1cc(-c2oc3cc(O)cc(O)c3c(=O)c2OC)cc(O)c1OC` was tested. Which fold change (FC) [1] did it give?
**A.** Its fold change (FC) is 2.2.

**Q.** How did the fold change (FC) [1] turn out when `COc1c(O)cc(-c2oc3cc(O)cc(O)c3c(=O)c2OC)cc1O` was run?
**A.** Its fold change (FC) is 2.

**Q.** `COc1ccc(-c2oc3cc(O)cc(O)c3c(=O)c2OC)cc1O` was tested. Which fold change (FC) [1] did it give?
**A.** The fold change (FC) was 6.7.

**Q.** What about the Activity [2] of the same compound?
**A.** The Activity was 24%.

**Q.** What about the Activity [3] of the same compound?
**A.** The Activity was 27%.

**Q.** Which fold change (FC) [1] does the source give for `C=C(C)[C@@H](O)CC[C@@H](C)[C@H]1CC[C@@]2(C)[C@@H]3[C@@H](OC(C)=O)C[C@H]4[C@](C)(C(=O)O)[C@@H](O)CC[C@@]45C[C@@]35CC[C@]12C` here?
**A.** The fold change (FC) was 1.7.

**Q.** With `O=c1cc(-c2ccc(O)c(O)c2)oc2cc(O)cc(O)c12` [LUTEOLIN] as the compound, how does the viability at 17.5 µM [4] read?
**A.** The viability at 17.5 µM was 51%.

**Q.** And the Activity [5]?
**A.** Its Activity is “Active”.
